In one assay the target is T1, S. aureus ClpP (Sa-ClpP) (Staphylococcus aureus, UniProt Q2G036).
T1 construct: made in house; host or cells: E. coli BL21 (DE3)
The assay is described as follows: Casein-BODIPY digestion assay (ClpP activation). Type of assay: biochemical. How it is done:
The compounds were assayed in a casein digestion assay in order to determine their effect on ClpP activation. Briefly, the assay was carried out using S. aureus ClpP (“Sa-ClpP”) overexpressed in E. coli BL21 (DE3) and purified in a two-step process. Purity of the protein was assessed through SDS PAGE analysis. EC50 evaluations were conducted in triplicate in a 20 μl assay format using a method adapted from Maurizi et al. (Methods Enzymol. (1994) 244:314-331). Each well contained 10 μM saClpP, 25 μg/ml BODIPY FL casein (Invitrogen Corporation, San Diego, Calif.), and test compound in concentrations ranging between 0-1000 μM in assay buffer (50 mM Tris pH 8, 200 mM KCl, and 1 mM TCEP). The reaction took place at 37° C. Fluorescence (excitation 485 nm; emission 528 nm) was measured in five minute intervals over a 45 min period using a BioTek HT fluorescence microplate reader (BioTek Instruments, Inc., Winooski, Vt.). Velocity of each reaction was calculated and data was fit to a dose response curve using GraphPad Prism® software (GraphPad Software, Inc., La Jolla, Calif.). EC50 is the effective concentration of compound which causes 50% activation of S. aureus ClpP in the foregoing BODIPY FL casein assay.
Alternatively, the assay was carried out using EnzCheck Protease Assay (Molecular Probes, Catalog # E6638). The assay was performed in black 384 well, flat bottom, low volume plates (Greiner Bio-One, Monroe, N.C., catalog #784076). 10 μL of Tris.HCl buffer, pH 8.0 with 0.01% Triton X-100 was pipetted into each well using a Well-Mate (Thermo Scientific, Waltham, Mass.). 0.4 μL test compounds or controls (2% DMSO v/v) were added to each well using a Biomek FX liquid handling robot (Beckman Coulter, Indianapolis, Ind.). After addition of test compounds and controls, 10 μL of master mix containing 2 μM Sa-ClpP and 2 μM substrate (Bodipy-FL labeled casein) in Tris.HCl buffer, pH 8.0 with 0.01% (v/v) Triton X-100, was pipetted into each well. All assays were performed in triplicate, under linear velocity conditions. Increase in fluorescent signal following activation of Sa-ClpP by test compounds and controls was measured over time period of 30 mins using filters with excitation at 485±15 nm and emission at 520±25 nm on a PHERAstar FS Multilabel reader (BMG, Cary, N.C.). Instrument gains and enzyme linear velocity conditions were determined and validated using ADEP4, a known Sa-ClpP activator. Data analysis was done by measuring rate of casein degradation over time (slopes). Computed degradation rates (slopes) were normalized to positive (ADEP4) or negative (DMSO) controls. Using nonlinear regression curve fitting EC50 values and % activation were determined using the equation “log [agonist] vs. Response-variable slope (four parameters)-symmetrical” in the program Prism 6 (GraphPad Software, La Jolla, Calif. USA, www.graphpad.com).

The subject of the next assay is S. aureus ΔClpP. Description: Minimal inhibitory concentration, microbroth dilution. Type of assay: cell-based, Staphylococcus aureus. Particulars: MIC; ClpP inactivated. The method, then:
(§1) Minimal inhibitory concentrations (“MICs”) were determined using the microbroth dilution method according to Clinical Laboratory Standards Institute (CLSI; National, C.F. C. L. S., Methods for Dilution Antimicrobial Susceptibility Tests for Bacteria Grow aerobically-Seventh Edition: Approved Standard M7-A7, CLSI, Wayne, Pa., USA, 2008) and were read by visual inspection. Two fold serial dilutions of test compound in 100 μL of the appropriate broth media were first prepared in 96-well round bottom microtiter plates (Nalgene Nunc International, Rochester, N.Y., USA). An equivalent volume (100 μL) of bacterial broth inocula containing approximately 10^5 bacterial cfu/mL was added to each well to give final concentrations of test compound starting at 200 μM. The plates were then incubated aerobically at 37° C. All strains were incubated overnight. After incubations, in all cases the MIC was recorded as the lowest concentration of drug that prevented bacterial growth. The bacterial strains for which MIC was determined as described in Table 4.
(In general: Broth dilution looks for growth in wells or tubes with falling amounts of substance.)

A further assay has as its system E. faecails. The description is as above. Particulars: Enterococcus faecalis. The format is cell-based. The method, then:
as §1

Another assay deals with MRSA NRS70. Described as above. Type of assay: cell-based. Conditions: Staphylococcus aureus. How it is done:
as §1

The next assay deals with S. aureus ATCC 29213. Described as above. Particulars: Staphylococcus aureus. The format is cell-based. How it is done:
as §1

Another assay concerns S. aureus USA 300. Described as above. Type of assay: cell-based. Conditions: Staphylococcus aureus. The method, then: as §1
The mark [1] stands for this setting: read-out: Minimal Inhibitory Concentrations (μM) E. faecails, MIC.
[2] abbreviates: read-out: Minimal Inhibitory Concentrations (μM) MRSA NRS70, MIC.
[3] abbreviates: ATCC29213, read-out: Minimal Inhibitory Concentrations (μM) S. aureus ATCC 29213, MIC.
Setting [4] is: USA300, read-out: Minimal Inhibitory Concentrations (μM) S. aureus USA 300, MIC.

The values that follow come from patent publication US10570179B2, “Substituted urea depsipeptide analogs as activators of the CLPP endopeptidase” (priority 2016, dated 2020).

In brackets after ≈: the same amount, converted by molar mass. Read-outs that look alike come from different tables or passages of the source. Numbered stars: 1 amine (or outer) side, 2 acyl side, 3 side chain; on linkers, the order of the positions; unused ones are H or OH. Bridge positions count the residues as written; N and C are the ends. Square brackets hold non-standard residues; d marks the D form. Peptide text beside a SMILES is read from it. * marks the point of attachment. Phe(3-Me) = Cc1cccc(C[C@H](N)C(=O)O)c1; Pro(4S-Me) = C[C@@H]1CN[C@H](C(=O)O)C1; X4 = O=C1CN([*:1])[C@H](C(=O)[*:2])CN1; Pro(4R-Me) = C[C@H]1CN[C@H](C(=O)O)C1; Hyp = O=C(O)[C@@H]1C[C@@H](O)CN1; NH(3-Cl-phenyl) = Clc1cccc(N*)c1; NH(4-Cl-phenyl) = Clc1ccc(N*)cc1; aThr = C[C@H](O)[C@H](N)C(=O)O; Pip = O=C(O)[C@@H]1CCCCN1; CO = O=C([*:1])[*:2]

T1 sequence (Q2G036 whole entry): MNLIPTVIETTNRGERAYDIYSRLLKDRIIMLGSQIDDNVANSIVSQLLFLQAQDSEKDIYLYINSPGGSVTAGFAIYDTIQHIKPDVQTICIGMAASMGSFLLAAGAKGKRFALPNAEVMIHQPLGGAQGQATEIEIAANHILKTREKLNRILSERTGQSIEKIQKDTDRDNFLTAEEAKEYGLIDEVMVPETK

By EC50 is commonly meant the concentration at which the effect is half-maximal. Read a high EC50 as lower potency in that assay. In turn, `Cc1cccc(C[C@H](NC(=O)Nc2cccc(Cl)c2)C(=O)N[C@@H]2C(=O)N3CCC[C@H]3C(=O)N3CC(=O)NC[C@H]3C(=O)N[C@@H](C)C(=O)N3C[C@H](C)C[C@H]3C(=O)O[C@H]2C)c1` [Compound 76, (S)-2-(3-(3-CHLOROPHENYL)UREIDO)-3-(M-TOLYL)-N-((6AS,12S,13S,15AS,17R,21S,23AS)-13,17,21-TRIMETHYL-3,6,11,15,20,23-HEXAOXOOCTADECAHYDRO-2H,6H,11H,15H-PYRAZINO[2,1-I]DIPYRROLO[2,1-C:2′,1′-L][1]OXA[4,7,10,13]TETRAAZACYCLOHEXADECIN-12-YL)PROPANAMIDE] ({NH(3-Cl-phenyl)-CO}-[Phe(3-Me)][aThr]P[X4]A[Pro(4R-Me)]; ester 2-C) returned an EC50 on S. aureus ClpP (Sa-ClpP) of 5.02 µM. In addition, in the assay on S. aureus ΔClpP, the “Minimal Inhibitory Concentrations (μM) S. aureus ΔClpP” value was more than 20 µM. In addition, the MIC with E. faecails (setting [1]), in the assay on MRSA NRS70 (setting [2]), in the assay on S. aureus ATCC 29213 (setting [3]) and with S. aureus USA 300 (setting [4]) was more than 20 µM throughout.

`CCc1ccc(NC(=O)N[C@@H](Cc2cccc(C)c2)C(=O)N[C@H]2COC(=O)[C@@H]3C[C@@H](C)CN3C(=O)[C@H](C)NC(=O)[C@@H]3CCCCN3C(=O)[C@@H]3CCCN3C2=O)cc1` [Compound 70, (S)—N-((2R,6S,8AS,14AS,20S,23AS)-2,6-DIMETHYL-5,8,14,19,23-PENTAOXOOCTADECAHYDRO-1H,5H,14H,19H-PYRIDO[2,1-I]DIPYRROLO[2,1-C:2′,1′-L][1]OXA[4,7,10,13]TETRAAZACYCLOHEXADECIN-20-YL)-2-(3-(4-ETHYLPHENYL)UREIDO)-3-(M-TOLYL)PROPANAMIDE] registered an EC50 on S. aureus ClpP (Sa-ClpP) of 0.29 ± 0.1 µM. The “Minimal Inhibitory Concentrations (μM) S. aureus ΔClpP” value with S. aureus ΔClpP was more than 20 µM. Besides, the MIC was 0.156 µM (≈ 0.123 µg/mL) in the assay on E. faecails (MIC, read-out: Minimal Inhibitory Concentrations (μM) E. faecails); 0.313 µM (≈ 0.246 µg/mL) in the assay on MRSA NRS70 (MIC, read-out: Minimal Inhibitory Concentrations (μM) MRSA NRS70); 0.625 µM (≈ 0.491 µg/mL) in the assay on S. aureus ATCC 29213 (ATCC29213, MIC, read-out: Minimal Inhibitory Concentrations (μM) S. aureus ATCC 29213); 0.313 µM (≈ 0.246 µg/mL) in the assay with S. aureus USA 300 (USA300, MIC, read-out: Minimal Inhibitory Concentrations (μM) S. aureus USA 300).

Regarding `Cc1cccc(C[C@H](NC(=O)Nc2ccc(Cl)cc2)C(=O)N[C@@H]2C(=O)N3C[C@H](O)C[C@H]3C(=O)N3CCCC[C@H]3C(=O)N[C@@H](C)C(=O)N3C[C@@H](C)C[C@H]3C(=O)O[C@H]2C)c1` [Compound 66, (S)-2-(3-(4-CHLOROPHENYL)UREIDO)-N-((2S,6S,8AS,14AS,16R,20S,21S,23AS)-16-HYDROXY-2,6,21-TRIMETHYL-5,8,14,19,23-PENTAOXOOCTADECAHYDRO-1H,5H,14H,19H-PYRIDO[2,1-I]DIPYRROLO[2,1-C:2′,1′-L][1]OXA[4,7,10,13]TETRAAZACYCLOHEXADECIN-20-YL)-3-(M-TOLYL)PROPANAMIDE] ({NH(4-Cl-phenyl)-CO}-[Phe(3-Me)][aThr][Hyp][Pip]A[Pro(4S-Me)]; ester 2-C), the EC50 at S. aureus ClpP (Sa-ClpP) was found to be 0.16 ± 0.1 µM. Besides, in the assay on S. aureus ΔClpP, the “Minimal Inhibitory Concentrations (μM) S. aureus ΔClpP” value was more than 20 µM. Moreover, the MIC with E. faecails (setting [1]) turned out to be 1.25 µM (≈ 1.03 µg/mL); in the assay with MRSA NRS70 (setting [2]), 1.25 µM (≈ 1.03 µg/mL); in the assay on S. aureus ATCC 29213 (setting [3]), 0.625 µM (≈ 0.514 µg/mL); in the assay on S. aureus USA 300 (setting [4]), 0.313 µM (≈ 0.257 µg/mL).

On S. aureus ClpP (Sa-ClpP), `Cc1cccc(C[C@H](NC(=O)Nc2ccc(Cl)cc2)C(=O)N[C@H]2COC(=O)[C@@H]3CCCN3C(=O)[C@H](C)NC(=O)[C@@H]3CCCCN3C(=O)[C@@H]3C[C@@H](O)CN3C2=O)c1` [Compound 56, (S)-2-(3-(4-CHLOROPHENYL)UREIDO)-N-((6S,8AS,14AS,16R,20S,23AS)-16-HYDROXY-6-METHYL-5,8,14,19,23-PENTAOXOOCTADECAHYDRO-1H,5H,14H,19H-PYRIDO[2,1-I]DIPYRROLO[2,1-C:2′,1′-L][1]OXA[4,7,10,13]TETRAAZACYCLOHEXADECIN-20-YL)-3-(M-TOLYL)PROPANAMIDE] yielded an EC50 of 1.33 ± 2.5 µM. Besides, the “Minimal Inhibitory Concentrations (μM) S. aureus ΔClpP” value with S. aureus ΔClpP is more than 20 µM. In addition, the MIC with E. faecails (setting [1]) was 2.5 µM (≈ 1.99 µg/mL); in the assay with MRSA NRS70 (setting [2]), 10 µM (≈ 7.94 µg/mL); in the assay on S. aureus ATCC 29213 (setting [3]) it was 5 µM (≈ 3.97 µg/mL); in the assay on S. aureus USA 300 (setting [4]), 2.5 µM (≈ 1.99 µg/mL).
